According to patent publication US8143409B2, “Crystalline form of rabeprazole sodium” (Dipharma Francis S.R.L., priority 2006, dated 2012):

Tests used:
[1] = Thermodynamic stability by comparing DSC thermograms; type: physicochemical; details: compared with known hydrate forms α and β, by comparing the respective DSC thermograms
Description: DSC thermograms were recorded with a Mettler-Toledo differential scansion calorimeter DSC 822, under the following operative conditions: aluminium capsules, 30-400° C. range with increase of 10° C./min, under nitrogen as purging gas (80 ml/min).

[2] = Stability of the crystalline hydrate form at room temperature; type: physicochemical; details: compared with hydrated crystalline forms alpha and beta
[3] = isomorphic forms of EP 1674463; makes handling and storing easy; cited from earlier work

Structure (SMILES): COCCCOc1ccnc(C[S+]([O-])c2nc3ccccc3[n-]2)c1C.[Na+] (stereo not drawn) [Form γ, 2-[[[4-(3-methoxypropoxy)-3-methyl-2-pyridinyl]-methyl]sulfinyl]-1H-benzylimidazole sodium salt]
- thermodynamic stability [1]: thermodynamically more stable than the known hydrate forms α and β
- stability [2]: more stable at room temperature

Structure (SMILES): COCCCOc1ccnc(C[S+]([O-])c2nc3ccccc3[n-]2)c1C.[Na+] (stereo not drawn) [alpha]
- hygroscopicity [3]: low hygroscopicity
